Patent publication US11951169B2, “Pharmaceutical preparation with curcuminoids nanoparticles and a method for producing the same” (AASTAR PTE LTD, priority 2019, dated 2024)

Experiment: Dissolution test (USP apparatus Type II paddles) of capsules containing the gel liquid, HPLC analysis
Type: physicochemical
Conditions: capsule
Experimental: An Agilent 1260 Infinity HPLC system consists of a G1330B thermostat, a G1329B auto-injector, a G13150 diode array detector, a G1322A degasser and a high-pressure binary pump. Signal/Noise ratio of the chromatogram generated from this HPLC was used for qualitative and quantitative analyses in this study. The column used was an Angilent Poroshell 120 EC-C18 ([…], 2.7 am). The HPLC was run for 10 minutes at a column temperature of 35° C. under a flow rate of 0.3 ml/min with injection volume being 5 μl. The detection spectrum was set at 426 nm using an elusion medium comprising acetonitrile and 0.1% of aqueous formic acid in a volume ratio of 1:2.
2.0 g of NaCl and 7 ml of HCl were dissolved in 1 L of ultrapure water. The pH was adjusted to 1.2, by using 2M NaOH. 13.121 g of Na2HPO4 were dissolved in 1 L of ultrapure water. The pH was adjusted to 6.8.
A Vankel Varain VK 70000 Dissolution System consisting of VK7000 dissolution system, VK 750D heating circulator, system monitor, 6 Vankel vessels and apparatus Type II paddles, was used in the preparation of a dissolution sample from capsules containing the gel liquid.
The dissolution test was performed in compliance with United States Pharmacopoeia using apparatus Type II paddles. […] 6 capsules were added into 6 vessels respectively. […] 2 μl of the filtrate was injected into the HPLC system for analysis.
Further, 250 ml of pH 6.8 solution was added to the same vessel at 45 minutes and the pH was adjusted to 6.8 using 2M NaOH within 5 minutes. 1-2 ml of the dissolution sample was then collected after 60 minutes, 75 minutes and 120 minutes followed by filtering through a 0.45 μm membrane immediately. 2 μl of the filtrate was injected into the HPLC system for analysis.

Row | SMILES | Weight dissolved (pH 1.2, 10 min) [µg] | Weight dissolved (pH 1.2, 15 min) [µg] | Weight dissolved (pH 1.2, 30 min) [µg] | Weight dissolved (pH 6.8, 45 min) [µg] | Weight dissolved (pH 6.8, 60 min) [µg] | Weight dissolved (pH 6.8, 75 min) [µg] | Weight dissolved (pH 6.8, 120 min) [µg]
1 | COc1cc(/C=C/C(=O)CC(=O)/C=C/c2ccc(O)c(OC)c2)ccc1O [Curcumin, curcumin] | 590 ± 78 | 4250 ± 686 | 18908 ± 1819 | 24155 ± 1397 | 23746 ± 1347 | 23497 ± 1859 | 23937 ± 1826
2 | COc1cc(/C=C/C(=O)CC(=O)/C=C/c2ccc(O)cc2)ccc1O [DMC, demthoxycurcumin] | – | 195 ± 22 | 831 ± 87 | 745 ± 48 | 747 ± 45 | 739 ± 68 | 763 ± 69
